From patent US9107411B2, “Indolecarboxamides and benzimidazolecarboxamides as insecticides and acaricides” (BAYER INTELLECTUAL PROPERTY GMBH, priority 2011, dated 2015)

How the values were obtained:
Boophilus microplus = Boophilus microplus test (BOOPMI injection); assay type: in vivo; settings: application rate 20 μg/animal; injected into the abdomen; after 7 days
Summary of the method: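 Active ingredient dissolved in DMSO (10 mg in 0.5 ml, then diluted to the test concentration) and injected into the abdomen of Boophilus microplus ticks. Ticks kept in dishes in a climate-controlled room for 7 days. Efficacy (%) is based on laying of fertile eggs; 100% means no tick laid fertile eggs.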

Myzus persicae = assay: Myzus test (MYZUPE spray treatment); assay type: in vivo; settings: Chinese cabbage leaf discs, after 6 days
Protocol: Myzus Test (MYZUPE Spray Treatment) Solvent: 78 parts by weight of acetone • • 1.5 parts by weight of dimethylformamide Emulsifier: 0.5 part by weight of alkylaryl polyglycol ether To produce an appropriate active ingredient formulation, 1 part by weight of active ingredient is mixed with the stated amounts of solvent and emulsifier, and the concentrate is diluted with emulsifier-containing water to the desired concentration. Leaf discs of Chinese cabbage (Brassica pekinensis) infested by all stages of the green peach aphid (Myzus persicae) are sprayed with an active ingredient formulation of the desired concentration. After 6 days, the efficacy in % is determined. 100% means that all of the aphids have been killed; 0% means that none of the aphids have been killed.

Tetranychus urticae = assay: Tetranychus test, OP-resistant (TETRUR spray treatment); assay type: in vivo; settings: bean leaf discs, after 6 days
Summary of the method: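 Bean leaf discs infested with all stages of OP-resistant T. urticae sprayed with compound formulated in acetone/DMF plus alkylaryl polyglycol ether emulsifier, diluted in water. Efficacy (% mites killed) scored after 6 days.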

Spodoptera frugiperda = Spodoptera frugiperda test (SPODFR spray treatment); assay type: in vivo; settings: maize leaf discs, after 7 days
Summary of the method: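 Maize leaf discs sprayed with active ingredient formulated in acetone/dimethylformamide with emulsifier, diluted in emulsifier-containing water to the desired concentration. After drying, discs were populated with armyworm caterpillars. Efficacy (%) scored after 7 days: 100% all caterpillars killed, 0% none killed.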

adult Musca domestica = assay: Musca domestica test (MUSCDO); assay type: in vivo; settings: application rate 100 ppm; treated sponge; after 2 days
Summary of the method: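 Compound dissolved in DMSO and diluted with water to the desired concentration was applied to a sponge, and vessels were populated with adult flies. Kill % was scored after 2 days, where 100% means all flies dead.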

Lucilia cuprina larvae = assay: Lucilia cuprina test (LUCICU); assay type: in vivo; settings: application rate 100 ppm; treated horse meat; after 2 days
Summary of the method: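 About 20 Lucilia cuprina larvae placed on horse meat treated with compound formulation (DMSO concentrate diluted in water). Kill (%) scored after 2 days, 100% meaning all larvae dead.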

logP (HPLC-MS) = assay type: physicochemical; settings: HPLC, reversed-phase column (C18), 43° C.
Ctenocephalides felis = Ctenocephalides felis oral (CTECFE); assay type: in vivo; settings: application rate 100 ppm in citrated cattle blood; after 2 days
Summary of the method: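 About 20 unfed adult fleas fed through a Parafilm membrane on citrated cattle blood containing the compound at the desired concentration, diluted from a DMSO concentrate. Kill in % was scored after 2 days, where 100% means all fleas dead and 0% none.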

Phaedon cochleariae = assay: Phaedon test (PHAECO spray treatment); assay type: in vivo; settings: Chinese cabbage leaf discs, after 7 days
Summary of the method: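 Chinese cabbage leaf discs were sprayed with compound in acetone/DMF with emulsifier, diluted in water to the test concentration. After drying, discs were infested with mustard beetle larvae. Efficacy in % was scored after 7 days, where 100% means all larvae were killed and 0% means none.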

[1] = acidic range pH 2.7, acetonitrile (0.1% formic acid)/water gradient, calibration with unbranched alkan-2-ones
[2] = acidic range pH 2.7, EEC directive 79/831 Annex V.A8, two values = both regioisomers (G = N)

SMILES | efficacy (laying of fertile eggs) (Boophilus microplus) [%] | efficacy in % (Myzus persicae; application rate 100 g/ha) [%] | efficacy in % (Tetranychus urticae; application rate 500 g/ha) [%] | efficacy in % (Spodoptera frugiperda; application rate 500 g/ha) [%] | efficacy (kill in %) (adult Musca domestica) [%] | efficacy (kill in %) (Lucilia cuprina larvae) [%] | log p (logP (HPLC-MS); [1]) | efficacy (kill in %) (Ctenocephalides felis) [%] | efficacy in % (Phaedon cochleariae; application rate 500 g/ha) [%] | efficacy in % (Tetranychus urticae; application rate 100 g/ha) [%] | efficacy in % (Spodoptera frugiperda; application rate 100 g/ha) [%] | log p (logP (HPLC-MS); [2]) | efficacy in % (Phaedon cochleariae; application rate 100 g/ha) [%] | efficacy in % (Myzus persicae; application rate 500 g/ha) [%]
C#CCn1c(C(=O)NC(c2ccc(F)c(C(F)(F)F)c2)C(F)(F)F)nc2cc(C(=O)NC3CC3)c(Cl)cc21 (stereo not shown) [Compound 97] | 100 | 100 | 100 | 100 | 100 | 100 | 3.62 | 95 | 100 |  |  |  |  | 
CCc1cc2c(cc1C(=O)NC1(C#N)CC1)cc(C(=O)NC(c1cccc(C(F)(F)F)c1)C(F)(F)F)n2CC (stereo not shown) [Compound 282] | 100 | 80 |  |  | 90 | 100 |  | 100 |  | 100 | 100 | 3.98 | 100 | 
CCn1c(C(=O)NC(c2ccc(F)c(Cl)c2)C(F)(F)F)cc2cc(C(=O)NC3CC3)c(C)cc21 (stereo not shown) [Compound 192] | 100 | 90 |  |  | 100 | 100 | 3.65 | 100 |  | 100 | 100 |  | 100 | 
CCn1c(C(=O)NC(c2ccc(F)c(Br)c2)C(F)(F)F)cc2cc(C(=O)NC3(C#N)CC3)c(C)cc21 (stereo not shown) [Compound 191] | 100 | 90 |  |  | 90 | 100 | 3.71 | 100 |  | 100 | 100 |  | 100 | 
CCn1c(C(=O)NC(c2cccc(OC(F)F)c2)C(F)(F)F)cc2cc(C(=O)NC3CC3)c(Cl)cc21 (stereo not shown) [Compound 276] | 100 | 90 |  |  | 100 | 100 | 3.48 | 100 |  | 90 | 100 |  | 100 | 
CCn1c(C(=O)NC(c2cccc(Br)c2)C(F)(F)F)cc2cc(C(=O)NC3CC3)c(Cl)cc21 (stereo not shown) [Compound 40] | 100 | 90 |  |  |  | 100 | 3.71 | 100 |  | 100 | 100 |  | 100 | 
CCn1c(C(=O)NC(c2cc(Cl)cc(Cl)c2)C(F)(F)F)cc2cc(C(=O)NC3(C#N)CC3)c(C)cc21 (stereo not shown) [Compound 291] |  | 90 |  |  |  |  |  |  |  | 100 | 100 | 4.07 | 100 | 
CCn1c(C(=O)NC(c2cc(Cl)c(F)c(Cl)c2)C(F)(F)F)cc2cc(C(=O)NC3(C#N)CC3)c(C)cc21 (stereo not shown) [Compound 290] |  |  |  |  |  |  |  |  |  | 100 | 100 | 4.13 | 100 | 100
CCn1c(C(=O)NC(c2cc(Cl)c(Cl)c(Cl)c2)C(F)(F)F)cc2cc(C(=O)NC3(C#N)CC3)c(C)cc21 (stereo not shown) [Compound 289] |  |  |  |  |  |  |  |  |  | 100 | 100 | 4.43 | 100 | 100
C=CCn1c(C(=O)NC(c2ccc(F)c(C(F)(F)F)c2)C(F)(F)F)nc2cc(C(=O)NC3CC3)c(Cl)cc21 (stereo not shown) [Compound 281] |  | 100 | 100 | 100 |  |  |  |  | 100 |  |  | 3.79 |  | 90
CCn1c(C(=O)NC(c2ccc(F)c(Cl)c2)C(F)(F)F)cc2cc(C(=O)NC3(C#N)CC3)c(C)cc21 (stereo not shown) [Compound 193] |  | 90 |  |  |  |  | 3.66 |  |  | 100 | 100 |  | 100 | 
